Test results taken from paper PMC10070013, “Apigenin improves cytotoxicity of antiretroviral drugs against HTLV-1 infected cells through the modulation of AhR signaling” (Neuroimmune Pharmacology and Therapeutics, 2023).

Experiments:
[1] = target: T1, ATP binding cassette subfamily B member 1 (ABCB1/P-gp) (Homo sapiens, UniProt P08183); test: Nano-ITC with recombinant protein (positive control protein)
T1 construct: Recombinant human ABCB1 (LS-G142372-20)

[2] = target: T2, aryl hydrocarbon receptor (AhR) (Homo sapiens, UniProt P35869); test: Nano-ITC with recombinant protein; type: binding
T2 construct: Recombinant human AhR (LS-G13702-10)
T2 sequence (P35869 11-848): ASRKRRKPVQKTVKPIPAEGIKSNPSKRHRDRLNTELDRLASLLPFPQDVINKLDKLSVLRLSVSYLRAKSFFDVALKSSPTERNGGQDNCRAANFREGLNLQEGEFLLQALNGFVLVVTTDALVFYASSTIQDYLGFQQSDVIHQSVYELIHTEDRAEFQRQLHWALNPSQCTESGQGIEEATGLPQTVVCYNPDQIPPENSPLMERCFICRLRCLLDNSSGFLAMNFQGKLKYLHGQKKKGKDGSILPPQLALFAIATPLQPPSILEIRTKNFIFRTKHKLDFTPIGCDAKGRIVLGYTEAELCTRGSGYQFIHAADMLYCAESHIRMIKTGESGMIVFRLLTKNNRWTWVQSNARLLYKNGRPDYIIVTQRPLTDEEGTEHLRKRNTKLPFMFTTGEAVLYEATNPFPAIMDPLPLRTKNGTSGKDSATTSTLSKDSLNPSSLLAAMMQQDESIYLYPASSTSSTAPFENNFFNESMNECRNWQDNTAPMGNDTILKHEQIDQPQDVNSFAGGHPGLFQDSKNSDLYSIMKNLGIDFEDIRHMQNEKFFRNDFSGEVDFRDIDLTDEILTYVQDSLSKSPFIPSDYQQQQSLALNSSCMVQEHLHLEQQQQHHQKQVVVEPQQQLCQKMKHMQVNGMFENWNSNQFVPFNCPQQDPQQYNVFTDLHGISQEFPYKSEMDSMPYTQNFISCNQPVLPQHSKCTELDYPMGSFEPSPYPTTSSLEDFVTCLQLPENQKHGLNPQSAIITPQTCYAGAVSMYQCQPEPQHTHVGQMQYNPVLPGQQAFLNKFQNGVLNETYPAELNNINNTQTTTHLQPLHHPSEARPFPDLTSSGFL

T1 sequence (P08183 whole entry): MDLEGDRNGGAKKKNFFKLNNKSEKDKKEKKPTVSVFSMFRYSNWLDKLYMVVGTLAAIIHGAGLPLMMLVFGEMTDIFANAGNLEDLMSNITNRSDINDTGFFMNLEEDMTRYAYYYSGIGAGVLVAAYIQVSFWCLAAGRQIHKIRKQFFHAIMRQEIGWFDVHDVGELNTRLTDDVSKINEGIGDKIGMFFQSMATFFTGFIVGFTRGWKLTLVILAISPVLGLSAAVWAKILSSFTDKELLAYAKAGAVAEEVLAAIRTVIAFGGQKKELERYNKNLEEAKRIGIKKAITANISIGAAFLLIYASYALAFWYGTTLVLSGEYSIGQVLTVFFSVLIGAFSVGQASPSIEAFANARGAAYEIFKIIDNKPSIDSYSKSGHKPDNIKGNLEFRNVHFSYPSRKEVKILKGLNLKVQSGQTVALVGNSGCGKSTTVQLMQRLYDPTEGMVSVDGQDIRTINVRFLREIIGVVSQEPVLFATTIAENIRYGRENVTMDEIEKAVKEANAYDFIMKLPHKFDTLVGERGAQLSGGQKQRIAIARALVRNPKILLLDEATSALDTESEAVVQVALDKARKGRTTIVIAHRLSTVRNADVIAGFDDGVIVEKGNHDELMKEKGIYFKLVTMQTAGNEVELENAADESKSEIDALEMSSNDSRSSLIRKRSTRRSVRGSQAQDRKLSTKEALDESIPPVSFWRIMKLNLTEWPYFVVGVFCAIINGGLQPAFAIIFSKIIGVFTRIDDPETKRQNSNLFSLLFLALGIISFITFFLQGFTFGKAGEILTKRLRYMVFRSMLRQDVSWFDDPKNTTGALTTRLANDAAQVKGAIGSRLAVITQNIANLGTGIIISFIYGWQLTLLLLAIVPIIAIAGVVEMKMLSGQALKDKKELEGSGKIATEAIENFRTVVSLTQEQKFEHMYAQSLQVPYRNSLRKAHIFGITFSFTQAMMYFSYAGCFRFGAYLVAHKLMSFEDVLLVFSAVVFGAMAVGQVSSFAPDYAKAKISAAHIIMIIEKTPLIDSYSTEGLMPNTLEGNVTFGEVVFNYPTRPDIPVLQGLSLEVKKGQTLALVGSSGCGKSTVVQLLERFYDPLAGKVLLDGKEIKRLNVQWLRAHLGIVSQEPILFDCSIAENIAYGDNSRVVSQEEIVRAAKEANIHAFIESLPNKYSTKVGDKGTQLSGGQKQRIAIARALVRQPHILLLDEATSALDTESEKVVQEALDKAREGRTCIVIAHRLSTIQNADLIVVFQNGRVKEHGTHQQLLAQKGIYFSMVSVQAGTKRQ

SMILES: O=c1cc(-c2ccc(O)cc2)oc2cc(O)cc(O)c12 [Apigenin]
- Kd [1]: 1 nM
- Kd [2]: 4240 nM
